Reference: US9133115B2 (ACHILLION PHARMACEUTICALS, INC., priority 2008, dated 2015)

Test system: HCV replicon
Test: HCV replicon replication assay (NPT ELISA) in Huh-7 replicon-containing cells
Format: cell-based
Conditions: Hepatitis C virus, 72 h; HCV replicon in Huh-7 cells, three days incubation; read-out: EC50
Summary of the method: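 Huh-7 cells carrying a bicistronic HCV replicon (HCV-IRES-neo, EMCV-IRES-driven NS3–NS5B, 3′-NTR) were seeded at 6000-7500 cells/well, grown 24 h to 60-70% confluence, then treated with graded compound concentrations. Replication was read as NPT level by capture ELISA (rabbit anti-NPTII, Eu-N1 secondary); interferon alpha served as positive control.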

| SMILES | EC50 |
| --- | --- |
| C=C[C@@H]1C[C@]1(NC(=O)[C@@H]1C[C@@H](Oc2cc(-c3ccccc3)nc3cc(OC)ccc23)CN1C(=O)[C@@H](CC(=O)N1CCCC(F)C1)C(C)(C)C)C(=O)NS(=O)(=O)C1CC1 (stereo partly drawn) [Compound 83, (2S,4R)-1-((2S)-2-tert-butyl-4-(3-fluoropiperidin-1-yl)-4-oxobutanoyl)-N-((1R,2S)-1-(cyclopropyl-sulfonylcarbamoyl)-2-vinylcyclopropyl)-4-(7-methoxy-2-phenylquinolin-4-yloxy)pyrrolidine-2-carboxamide] | < 1000 nM |
| C=C[C@@H]1C[C@]1(NC(=O)[C@@H]1C[C@@H](O)CN1C(=O)[C@@H](CC(=O)N1CCCCC1)C(C)(C)C)C(=O)NS(=O)(=O)C1CC1 [Compound 84, (2S,4R)-1-((S)-2-tert-butyl-4-oxo-4-(piperidin-1-yl)butanoyl)-N-((1R,2S)-1-(cyclo-propylsulfonyl-carbamoyl)-2-vinylcyclopropyl)-4-hydroxypyrrolidine-2-carboxamide] | 1000 to 10000 nM |
| C=C[C@H]1C[C@]1(NC(=O)[C@@H]1C[C@@H](Oc2cc(-c3ccccc3)nc3cc(OC)ccc23)CN1C(=O)[C@@H](CC(=O)N1CCCCC1)C1CCCC1)C(=O)NS(=O)(=O)C1CC1 [Compound 86, (2S,4R)-1-((S)-2-cyclopentyl-4-oxo-4-(piperidin-1-yl)butanoyl)-N-((1R,2R)-1-(cyclo-propylsulfonyl-carbamoyl)-2-vinylcyclopropyl)-4-(7-methoxy-2-phenylquinolin-4-yloxy)pyrrolidine-2-carboxamide] | < 1000 nM |
| C=C[C@@H]1C[C@]1(NC(=O)[C@@H]1C[C@@H](Oc2cc(-c3ccccc3)nc3cc(OC)ccc23)CN1C(=O)[C@@H](CC(=O)N1CCCC1)C(C)(C)C)C(=O)NS(=O)(=O)C1CC1 [Compound 87, (2S,4R)-1-((S)-2-tert-butyl-4-oxo-4-(pyrrolidin-1-yl)butanoyl)-N-((1R,2S)-1-(cyclo-propylsulfonyl-carbamoyl)-2-vinylcyclopropyl)-4-(7-methoxy-2-phenylquinolin-4-yloxy)pyrrolidine-2-carboxamide] | < 1000 nM |
| C=C[C@@H]1C[C@]1(NC(=O)[C@@H]1C[C@@H](Oc2cc(-c3ccccc3)nc3cc(OC)ccc23)CN1C(=O)[C@@H](CC(=O)N1CCC[C@H]1C(=O)N(C)C)C(C)(C)C)C(=O)NS(=O)(=O)C1CC1 [Compound 88, (2S,4R)-1-((S)-2-tert-butyl-4-((S)-2-(dimethylcarbamo-yl)pyrrolidin-1-yl)-4-oxobutanoyl)-N-((1R,2S)-1-(cyclopropylsulfonyl-carbamoyl)-2-vinylcyclopropyl)-4-(7-methoxy-2-phenylquinolin-4-yloxy)pyrrolidine-2-carboxamide] | < 1000 nM |
| C=C[C@@H]1C[C@]1(NC(=O)[C@@H]1C[C@@H](Oc2cc(-c3ccccc3)nc3cc(OC)ccc23)CN1C(=O)[C@@H](CC(=O)N1CCC(F)(F)C1)C(C)(C)C)C(=O)NS(=O)(=O)C1CC1 [Compound 89, (2S,4R)-1-((S)-2-tert-butyl-4-(3,3-difluoropyrrolidin-1-yl)-4-oxobutanoyl)-N-((1R,2S)-1-(cyclopropylsulfonyl-carbamoyl)-2-vinylcyclopropyl)-4-(7-methoxy-2-phenylquinolin-4-yloxy)pyrrolidine-2-carboxamide] | < 1000 nM |
| C=C[C@@H]1C[C@]1(NC(=O)[C@@H]1C[C@@H](Oc2cc(-c3ccccc3)nc3cc(OC)ccc23)CN1C(=O)[C@@H](CC(=O)N1CCC(N(C)C)C1)C(C)(C)C)C(=O)NS(=O)(=O)C1CC1 (stereo partly drawn) [Compound 90, (2S,4R)-1-((2S)-2-tert-butyl-4-(3-(dimethylamino)pyr-rolidin-1-yl)-4-oxobutanoyl)-N-((1R,2S)-1-(cyclopropylsulfonyl-carbamoyl)-2-vinylcyclopropyl)-4-(7-methoxy-2-phenylquinolin-4-yloxy)pyrrolidine-2-carboxamide] | 1000 to 10000 nM |
| C=CC1C[C@]1(NC(=O)[C@@H]1C[C@@H](Oc2cc(-c3ccccc3)nc3cc(OC)ccc23)CN1C(=O)[C@@H](CC(=O)N1CCCCC1)CC(C)C)C(=O)NS(=O)(=O)C1CC1 (stereo partly drawn) [Compound 91, (2S,4R)-N-((1R,2R)-1-(cyclopropyl-sulfonylcarbamoyl)-2-vinylcyclopropyl)-4-(7-methoxy-2-phenylquinolin-4-yloxy)-1-((R)-4-methyl-2-(2-oxo-2-(piperidin-1-yl)ethyl)pentano-yl)pyrrolidine-2-carboxamide] | < 1000 nM |
| C=C[C@@H]1C[C@]1(NC(=O)[C@@H]1C[C@@H](Oc2cc(-c3ccccc3)nc3cc(OC)ccc23)CN1C(=O)[C@@H](CC(=O)N1CCCCC1)C(C)(C)C)C(=O)NS(=O)(=O)C1CCCCC1 [Compound 92, (2S,4R)-1-((S)-2-tert-butyl-4-oxo-4-(piperidin-1-yl)butanoyl)-N-((1R,2S)-1-(cyclo-hexylsulfonyl-carbamoyl)-2-vinyl-cyclopropyl)-4-(7-methoxy-2-phenylquinolin-4-yloxy)pyrrolidine-2-carboxamide] | < 1000 nM |
| C=C[C@@H]1C[C@]1(NC(=O)[C@@H]1C[C@@H](OC(=O)Nc2ccccc2C(=O)OC)CN1C(=O)[C@@H](CC(=O)N1CCCCC1)C(C)(C)C)C(=O)NS(=O)(=O)C1CC1 [Compound 93, methyl 2-(((3R,5S)-1-((S)-2-tert-butyl-4-oxo-4-(piperidin-1-yl)butanoyl)-5-((1R,2S)-1-(cyclo-propylsulfonyl-carbamoyl)-2-vinylcyclopropyl-carbamoyl)pyrrolidin-3-yloxy)carbonyl-amino)benzoate] | < 1000 nM |
| C=C[C@@H]1C[C@]1(NC(=O)[C@@H]1C[C@@H](OC(=O)Nc2ccccc2C(=O)OCC)CN1C(=O)[C@@H](CC(=O)N1CCCCC1)C(C)(C)C)C(=O)NS(=O)(=O)C1CC1 [Compound 94] | < 1000 nM |
| C=C[C@@H]1C[C@]1(NC(=O)[C@@H]1C[C@@H](OC(=O)Nc2cccc(Oc3ccccc3)c2)CN1C(=O)[C@@H](CC(=O)N1CCCCC1)C(C)(C)C)C(=O)NS(=O)(=O)C1CC1 [Compound 95, (3R,5S)-1-((S)-2-tert-butyl-4-oxo-4-(piperidin-1-yl)butanoyl)-5-((1R,2S)-1-(cyclopropylsulfonyl-carbamoyl)-2-vinylcyclopropyl-carbamoyl)pyrrolidin-3-yl 3-phenoxyphenyl-carbamate] | 1000 to 10000 nM |
| C=C[C@@H]1C[C@]1(NC(=O)[C@@H]1C[C@@H](Oc2cc(-c3csc(NC(C)C)n3)nc3cc(OC)ccc23)CN1C(=O)[C@@H](CC(=O)N1CCCCC1)C(C)(C)C)C(=O)NS(=O)(=O)C1CC1 [Compound 96, (2S,4R)-1-((S)-2-tert-butyl-4-oxo-4-(piperidin-1-yl)butanoyl)-N-((1R,2S)-1-(cyclopropylsulfonyl-carbamoyl)-2-vinylcyclopropyl)-4-(2-(2-(isopropyl-amino)thiazol-4-yl)-7-methoxyquinolin-4-yloxy)pyrrolidine-2-carboxamide] | < 1000 nM |
| COc1ccc2c(O[C@@H]3C[C@@H](C(=O)NC4(C(=O)NS(=O)(=O)C5CC5)CCC4)N(C(=O)[C@@H](CC(=O)N4CCCCC4)C(C)(C)C)C3)cc(-c3ccccc3)nc2c1 [Compound 97, (2S,4R)-1-((S)-2-tert-butyl-4-oxo-4-(piperidin-1-yl)butanoyl)-N-(1-(cyclopropylsulfonyl-carbamoyl)cyclo-butyl)-4-(7-methoxy-2-phenylquinolin-4-yloxy)pyrrolidine-2-carboxamide] | 1000 to 10000 nM |
